ChEMBL document CHEMBL5214900, “Design, Synthesis, and Biological Evaluation of Membrane-Active Bakuchiol Derivatives as Effective Broad-Spectrum Antibacterial Agents” (J Med Chem, 2021)
Converted amounts (≈) assume the structure as drawn. The source made the active and inactive calls. No cut-off for these calls is given here.

Legend:
Acinetobacter baumannii [1] = test: Antibacterial activity against Acinetobacter baumannii ATCC 17978 assessed as fold increase in MIC incubated for 24 hrs in presence of 140 mM Na+ by CLSI based broth dilution method; format: functional
Staphylococcus aureus [2] = test: Antibacterial activity against methicillin-resistant Staphylococcus aureus NCTC10442 assessed as inhibition of bacterial growth incubated for 24 hrs by CLSI based broth dilution method; format: functional
Staphylococcus aureus [3] = test: Antibacterial activity against Staphylococcus aureus ATCC 29213 assessed as eradication of preformed bacterial biofilm by measuring residual biofilm viability at 0.78 ug/ml incubated for 24 hrs by crystal violet staining based assay relative to control; format: functional; conditions: dose 0.78 µg/ml
Staphylococcus aureus [4] = test: Antibacterial activity against Staphylococcus aureus NCTC10442 assessed as fold increase in MIC incubated for 24 hrs in presence of 1 mM Mg2+ by CLSI based broth dilution method; format: functional
Staphylococcus aureus [5] = test: Antibiofilm activity against Staphylococcus aureus ATCC 29213 assessed reduction in biofilm formation at 3.125 ug/ml measured after 24 hrs by crystal violet staining based assay relative to control; format: functional; set-up: scale not given: the % may be the effect or the level left; conditions: dose 3.125 µg/ml
Staphylococcus aureus [6] = test: Antibacterial activity against Staphylococcus aureus NCTC10442 assessed as fold increase in MIC incubated for 24 hrs in presence of 4.5 mM K+ by CLSI based broth dilution method; format: functional
[7] = Cytotoxicity against HEK293 cells assessed as cell viability at 6.25 ug/ml incubated for 24 hrs by CCK-8 assay relative to control; format: toxicity, cell-based; conditions: human, at 6.25 µg/mL, read-out: Activity
Pseudomonas aeruginosa [8] = test: Antibacterial activity against Pseudomonas aeruginosa ATCC 9027 in C57BL/6 mouse model of bacterial keratitis assessed as log reduction in number of viable bacterial colonies in infected cornea at 0.8 mg/ml, TOP administered 4 times a day for 3 consecutive days; format: functional; conditions: time 3 day
Staphylococcus aureus [9] = test: Antibiofilm activity against Staphylococcus aureus ATCC 29213 assessed reduction in biofilm formation at 0.39 ug/ml measured after 24 hrs by crystal violet staining based assay relative to control; format: functional; set-up: scale not given: the % may be the effect or the level left; conditions: dose 0.39 µg/ml
Cell membrane [10] = test: Disruption of membrane integrity in Staphylococcus aureus ATCC 29213 assessed as increase in red fluorescence intensity at 8 times MIC incubated for 2 hrs by SYTO 9/PI staining based fluorescence analysis; format: subcellular
Staphylococcus aureus [11] = test: Bactericidal activity against Staphylococcus aureus ATCC 29213 assessed as bacterial killing at 8 times MIC measured after 24 hrs by time-killing assay relative to control; format: functional
Cell membrane [12] = test: Disruption of membrane integrity in Staphylococcus aureus ATCC 29213 assessed as increase in fluorescence intensity at 1 to 8 times MIC by SYTOX green dye based fluorescence analysis; conditions: DDE = dose-dependent effect
Staphylococcus aureus [13] = test: Induction of cell death in Staphylococcus aureus ATCC 29213 assessed as residual living cells at 8 times MIC incubated for 2 hrs by SYTO 9/PI staining based fluorescence analysis relative to control; format: functional
Lipoteichoic acid = test: Displacement of BODIPY-TR-cadaverine from Bacillus subtilis Lipoteichoic acid at 8 times MIC measured for 30 mins by fluorescence based microplate reader assay relative to control
Acinetobacter baumannii [14] = test: Antibacterial activity against Acinetobacter baumannii ATCC 17978 assessed as fold increase in MIC incubated for 24 hrs in presence of 4.5 mM K+ by CLSI based broth dilution method; format: functional
Acinetobacter baumannii [15] = test: Antibacterial activity against Acinetobacter baumannii R2889 assessed as inhibition of bacterial growth incubated for 24 hrs by CLSI based broth dilution method; format: functional
Staphylococcus aureus [16] = test: Antibacterial activity against Staphylococcus aureus ATCC 29213 in C57BL/6 mouse model of bacterial keratitis assessed as log reduction in number of viable bacterial colonies in infected cornea at 0.8 mg/ml, TOP administered 4 times a day for 3 consecutive days; format: functional; conditions: time 3 day
Lipopolysaccharide (LPS) [17] = test: Displacement of BODIPY-TR-cadaverine from Escherichia coli Lipopolysaccharide at 2 times MIC measured for 30 mins by fluorescence based microplate reader assay relative to control
Staphylococcus aureus [18] = test: Bactericidal activity against Staphylococcus aureus ATCC 29213 assessed as bacterial killing at 8 times MIC measured after 8 hrs by time-killing assay relative to control; format: functional
Escherichia coli [19] = test: Antibiofilm activity against Escherichia coli ATCC 25922 assessed reduction in biofilm formation at […] ug/ml measured after 24 hrs by crystal violet staining based assay relative to control; format: functional; set-up: scale not given: the % may be the effect or the level left; conditions: dose […] microg/ml, 1.56 ug/mL
Escherichia coli [20] = test: Antibiofilm activity against Escherichia coli ATCC 25922 assessed reduction in biofilm formation at 0.39 ug/ml measured after 24 hrs by crystal violet staining based assay relative to control; format: functional; set-up: scale not given: the % may be the effect or the level left; conditions: dose 0.39 µg/ml
Escherichia coli [21] = test: Antibiofilm activity against Escherichia coli ATCC 25922 assessed reduction in biofilm formation at 6.25 ug/ml measured after 24 hrs by crystal violet staining based assay relative to control; format: functional; set-up: scale not given: the % may be the effect or the level left; conditions: dose 6.25 µg/ml
Staphylococcus aureus [22] = test: Antibacterial activity against Staphylococcus aureus ATCC 29213 assessed as eradication of preformed bacterial biofilm by measuring residual biofilm viability at 3.125 ug/ml incubated for 24 hrs by crystal violet staining based assay relative to control; format: functional; conditions: dose 3.125 µg/ml
Pseudomonas aeruginosa [23] = test: Induction of cell death in Pseudomonas aeruginosa ATCC 9027 assessed as residual living cells at 8 times MIC incubated for 2 hrs by SYTO 9/PI staining based fluorescence analysis relative to control; format: functional
Escherichia coli [24] = test: Antibiofilm activity against Escherichia coli ATCC 25922 assessed reduction in biofilm formation at 3.125 ug/ml measured after 24 hrs by crystal violet staining based assay relative to control; format: functional; set-up: scale not given: the % may be the effect or the level left; conditions: dose 3.125 µg/ml
Staphylococcus aureus [25] = test: Antibacterial activity against Staphylococcus aureus ATCC 29213 assessed as eradication of preformed bacterial biofilm by measuring residual biofilm viability at […] ug/ml incubated for 24 hrs by crystal violet staining based assay relative to control; format: functional; conditions: dose […] microg/ml, 1.56 ug/mL
Staphylococcus aureus [26] = test: Antibacterial activity against Staphylococcus aureus ATCC 29213 assessed as fold increase in MIC incubated for 24 hrs in presence of 4.5 mM K+ by CLSI based broth dilution method; format: functional
Escherichia coli [27] = test: Induction of drug resistance in Escherichia coli ATCC 25922 assessed as fold change in MIC measured after 19 passages by CLSI based broth dilution method; format: functional
Lipopolysaccharide (LPS) [28] = test: Displacement of BODIPY-TR-cadaverine from Escherichia coli Lipopolysaccharide at 4 times MIC measured for 30 mins by fluorescence based microplate reader assay relative to control
Escherichia coli [29] = test: Antibacterial activity against Escherichia coli ATCC 25922 assessed as fold increase in MIC incubated for 24 hrs in presence of 1 mM Mg2+ by CLSI based broth dilution method; format: functional
Staphylococcus aureus [30] = test: Antibacterial activity against Staphylococcus aureus NCTC10442 assessed as fold increase in MIC incubated for 24 hrs in presence of 140 mM Na+ by CLSI based broth dilution method; format: functional
Escherichia coli [31] = test: Antibacterial activity against Escherichia coli ATCC 25922 assessed as fold increase in MIC incubated for 24 hrs in presence of 140 mM Na+ by CLSI based broth dilution method; format: functional
Staphylococcus aureus [32] = test: Antibacterial activity against methicillin-resistant Staphylococcus aureus N315 assessed as inhibition of bacterial growth incubated for 24 hrs by CLSI based broth dilution method; format: functional

For C=C[C@@](C)(/C=C/c1ccc(OCCCCN(CCCN(C)C)CCCN(C)C)cc1)CCC=C(C)C, the “fold change (FC)” value (Acinetobacter baumannii [1]) was less than 2, the MIC (Staphylococcus aureus [2]) was 1.56 µg/mL (≈ 3.13 µM) and the Activity (Staphylococcus aureus [3]) was 88.63%. The “fold change (FC)” value (Staphylococcus aureus [4]) was less than 2, the Activity (Staphylococcus aureus [5]) was 96.53% and the “fold change (FC)” value (Staphylococcus aureus [6]) was less than 2. For the same compound, the viability at 24 h, 6.25 ug/ml [7] was 93.8%, the “log(activity)” value (Pseudomonas aeruginosa [8]) was 2.95 and the Activity (Staphylococcus aureus [9]) was 1.65%. For the same compound, the Activity (Cell membrane [10]) was “Active”, the Activity (Staphylococcus aureus [11]) was 100% and the Activity (Cell membrane [12]) was “Dde”. For the same compound, the Activity (Staphylococcus aureus [13]) was 2.2%, the Activity (Lipoteichoic acid) was 57.9% and the “fold change (FC)” value (Acinetobacter baumannii [14]) was less than 2. The MIC (Acinetobacter baumannii [15]) was 3.12 µg/mL (≈ 6.28 µM), the “log(activity)” value (Staphylococcus aureus [16]) was 5.7 and the Activity (Lipopolysaccharide (LPS) [17]) was 53.3%. The Activity (Staphylococcus aureus [18]) was “>=99.9%”, the Activity (Escherichia coli [19]) was 38.45% and the Activity (Escherichia coli [20]) was 4.04%. For the same compound, the Activity (Escherichia coli [21]) was 95.7%, the Activity (Staphylococcus aureus [22]) was 52.49% and the Activity (Pseudomonas aeruginosa [23]) was 0.3%. For the same compound, the Activity (Escherichia coli [24]) was 92.62%, the Activity (Staphylococcus aureus [25]) was 75.68% and the “fold change (FC)” value (Staphylococcus aureus [26]) was less than 2. The fold change (FC) (Escherichia coli [27]) was less than 4, the Activity (Lipopolysaccharide (LPS) [28]) was 64.4% and the “fold change (FC)” value (Escherichia coli [29]) was less than 2. For the same compound, the “fold change (FC)” value (Staphylococcus aureus [30]) was less than 2, the “fold change (FC)” value (Escherichia coli [31]) was less than 2 and the MIC (Staphylococcus aureus [32]) was 1.56 µg/mL (≈ 3.13 µM).
